# According to the NIST ThermoML archive (doi:10.1021/je400803f):
# ± gives the expanded uncertainty stated by the source.
# Test: xn = mol fraction of the nth substance listed
# Conditions: 101 kPa, Liquid, Vibrating tube method
structure (smiles),measurement,setting,value
CCCC[N+]1(C)CCCC1.FC(F)(F)C(F)(F)[P-](F)(F)(F)(C(F)(F)C(F)(F)F)C(F)(F)C(F)(F)F + CN(C)C=O,mass density,"293.15 K, x1 = 0.0165",993.84 ± 0.33 kg/m3
same,mass density,"293.15 K, x1 = 0.0379",1045.32 ± 0.35 kg/m3
same,mass density,"293.15 K, x1 = 0.0636",1098.24 ± 0.36 kg/m3
same,mass density,"293.15 K, x1 = 0.0999",1160.65 ± 0.39 kg/m3
same,mass density,"293.15 K, x1 = 0.1381",1214.48 ± 0.42 kg/m3
same,mass density,"293.15 K, x1 = 0.2002",1284.15 ± 0.48 kg/m3
same,mass density,"293.15 K, x1 = 0.3038",1367.83 ± 0.55 kg/m3
same,mass density,"293.15 K, x1 = 0.3944",1420.86 ± 0.6 kg/m3
same,mass density,"293.15 K, x1 = 0.4946",1465.66 ± 0.64 kg/m3
same,mass density,"293.15 K, x1 = 0.5997",1502.25 ± 0.67 kg/m3
same,mass density,"293.15 K, x1 = 0.6972",1529.32 ± 0.7 kg/m3
same,mass density,"293.15 K, x1 = 0.7887",1550.58 ± 0.72 kg/m3
same,mass density,"293.15 K, x1 = 0.8853",1569.6 ± 0.74 kg/m3
same,mass density,"298.15 K, x1 = 0.0165",988.9 ± 0.33 kg/m3
same,mass density,"298.15 K, x1 = 0.0379",1040.31 ± 0.34 kg/m3
same,mass density,"298.15 K, x1 = 0.0636",1093.11 ± 0.36 kg/m3
same,mass density,"298.15 K, x1 = 0.0999",1155.44 ± 0.39 kg/m3
same,mass density,"298.15 K, x1 = 0.1381",1209.17 ± 0.42 kg/m3
same,mass density,"298.15 K, x1 = 0.2002",1278.78 ± 0.47 kg/m3
same,mass density,"298.15 K, x1 = 0.3038",1362.38 ± 0.54 kg/m3
same,mass density,"298.15 K, x1 = 0.3944",1415.36 ± 0.59 kg/m3
same,mass density,"298.15 K, x1 = 0.4946",1460.2 ± 0.63 kg/m3
same,mass density,"298.15 K, x1 = 0.5997",1496.77 ± 0.67 kg/m3
same,mass density,"298.15 K, x1 = 0.6972",1523.85 ± 0.7 kg/m3
same,mass density,"298.15 K, x1 = 0.7887",1545.07 ± 0.72 kg/m3
same,mass density,"298.15 K, x1 = 0.8853",1564.14 ± 0.74 kg/m3
same,mass density,"303.15 K, x1 = 0.0165",983.96 ± 0.33 kg/m3
same,mass density,"303.15 K, x1 = 0.0379",1035.26 ± 0.34 kg/m3
same,mass density,"303.15 K, x1 = 0.0636",1087.96 ± 0.35 kg/m3
same,mass density,"303.15 K, x1 = 0.0999",1150.21 ± 0.38 kg/m3
same,mass density,"303.15 K, x1 = 0.1381",1203.86 ± 0.42 kg/m3
same,mass density,"303.15 K, x1 = 0.2002",1273.37 ± 0.47 kg/m3
same,mass density,"303.15 K, x1 = 0.3038",1356.95 ± 0.54 kg/m3
same,mass density,"303.15 K, x1 = 0.3944",1409.86 ± 0.59 kg/m3
same,mass density,"303.15 K, x1 = 0.4946",1454.71 ± 0.63 kg/m3
same,mass density,"303.15 K, x1 = 0.5997",1491.29 ± 0.66 kg/m3
same,mass density,"303.15 K, x1 = 0.6972",1518.39 ± 0.69 kg/m3
same,mass density,"303.15 K, x1 = 0.7887",1539.56 ± 0.71 kg/m3
same,mass density,"303.15 K, x1 = 0.8853",1558.67 ± 0.73 kg/m3
same,mass density,"308.15 K, x1 = 0.0165",978.95 ± 0.33 kg/m3
same,mass density,"308.15 K, x1 = 0.0379",1030.17 ± 0.34 kg/m3
same,mass density,"308.15 K, x1 = 0.0636",1082.78 ± 0.35 kg/m3
same,mass density,"308.15 K, x1 = 0.0999",1144.9 ± 0.38 kg/m3
same,mass density,"308.15 K, x1 = 0.1381",1198.5 ± 0.41 kg/m3
same,mass density,"308.15 K, x1 = 0.2002",1267.93 ± 0.46 kg/m3
same,mass density,"308.15 K, x1 = 0.3038",1351.43 ± 0.53 kg/m3
same,mass density,"308.15 K, x1 = 0.3944",1404.36 ± 0.58 kg/m3
same,mass density,"308.15 K, x1 = 0.4946",1449.18 ± 0.62 kg/m3
same,mass density,"308.15 K, x1 = 0.5997",1485.78 ± 0.66 kg/m3
same,mass density,"308.15 K, x1 = 0.6972",1512.87 ± 0.68 kg/m3
same,mass density,"308.15 K, x1 = 0.7887",1534.11 ± 0.71 kg/m3
same,mass density,"308.15 K, x1 = 0.8853",1553.16 ± 0.72 kg/m3
same,mass density,"313.15 K, x1 = 0.0165",973.88 ± 0.33 kg/m3
same,mass density,"313.15 K, x1 = 0.0379",1024.98 ± 0.33 kg/m3
same,mass density,"313.15 K, x1 = 0.0636",1077.52 ± 0.34 kg/m3
same,mass density,"313.15 K, x1 = 0.0999",1139.55 ± 0.38 kg/m3
same,mass density,"313.15 K, x1 = 0.1381",1193.09 ± 0.41 kg/m3
same,mass density,"313.15 K, x1 = 0.2002",1262.4 ± 0.46 kg/m3
same,mass density,"313.15 K, x1 = 0.3038",1345.95 ± 0.53 kg/m3
same,mass density,"313.15 K, x1 = 0.3944",1398.78 ± 0.58 kg/m3
same,mass density,"313.15 K, x1 = 0.4946",1443.63 ± 0.62 kg/m3
same,mass density,"313.15 K, x1 = 0.5997",1480.25 ± 0.65 kg/m3
same,mass density,"313.15 K, x1 = 0.6972",1507.34 ± 0.68 kg/m3
same,mass density,"313.15 K, x1 = 0.7887",1528.58 ± 0.7 kg/m3
same,mass density,"313.15 K, x1 = 0.8853",1547.65 ± 0.72 kg/m3
same,mass density,"318.15 K, x1 = 0.0165",968.76 ± 0.33 kg/m3
same,mass density,"318.15 K, x1 = 0.0379",1019.76 ± 0.33 kg/m3
same,mass density,"318.15 K, x1 = 0.0636",1072.2 ± 0.34 kg/m3
same,mass density,"318.15 K, x1 = 0.0999",1134.13 ± 0.37 kg/m3
same,mass density,"318.15 K, x1 = 0.1381",1187.58 ± 0.4 kg/m3
same,mass density,"318.15 K, x1 = 0.2002",1256.85 ± 0.45 kg/m3
same,mass density,"318.15 K, x1 = 0.3038",1340.13 ± 0.52 kg/m3
same,mass density,"318.15 K, x1 = 0.3944",1393.18 ± 0.57 kg/m3
same,mass density,"318.15 K, x1 = 0.4946",1438.04 ± 0.61 kg/m3
same,mass density,"318.15 K, x1 = 0.5997",1474.66 ± 0.65 kg/m3
same,mass density,"318.15 K, x1 = 0.6972",1501.77 ± 0.67 kg/m3
same,mass density,"318.15 K, x1 = 0.7887",1523.04 ± 0.69 kg/m3
same,mass density,"318.15 K, x1 = 0.8853",1542.09 ± 0.71 kg/m3
same,mass density,"323.15 K, x1 = 0.0165",963.52 ± 0.33 kg/m3
same,mass density,"323.15 K, x1 = 0.0379",1014.46 ± 0.33 kg/m3
same,mass density,"323.15 K, x1 = 0.0636",1066.82 ± 0.34 kg/m3
same,mass density,"323.15 K, x1 = 0.0999",1128.66 ± 0.37 kg/m3
same,mass density,"323.15 K, x1 = 0.1381",1182.02 ± 0.4 kg/m3
same,mass density,"323.15 K, x1 = 0.2002",1251.25 ± 0.45 kg/m3
same,mass density,"323.15 K, x1 = 0.3038",1334.59 ± 0.52 kg/m3
same,mass density,"323.15 K, x1 = 0.3944",1387.5 ± 0.57 kg/m3
same,mass density,"323.15 K, x1 = 0.4946",1432.36 ± 0.61 kg/m3
same,mass density,"323.15 K, x1 = 0.5997",1469.03 ± 0.64 kg/m3
same,mass density,"323.15 K, x1 = 0.6972",1496.17 ± 0.67 kg/m3
same,mass density,"323.15 K, x1 = 0.7887",1517.43 ± 0.69 kg/m3
same,mass density,"323.15 K, x1 = 0.8853",1536.51 ± 0.71 kg/m3
